In test [1] the test system is harmful plants such as Stellaria media, Lolium multiforum, Amaranthus retroflexus, Sinapis alba, Avena sativa and Setaria viridis. Nature of the test: Pre-emergence effect on weeds (greenhouse pot test). The format is in vivo. As to conditions: application rate of 1 kg or less of active ingredient per hectare; scored after 3 to 4 weeks by comparison with untreated controls. The source says: Seeds or rhizome pieces of monocotyledonous and dicotyledonous weed plants were placed in sandy loam in plastic pots and covered with soil. The compounds according to the invention, which were formulated in the form of wettable powders or emulsion concentrates, were then applied to the surface of the soil cover as aqueous suspension or emulsion at various dosages with an application rate of 600 to 800 l of water per ha (converted).
After the treatment, the pots were placed into a greenhouse and kept under good growth conditions for the weeds. The plant or emergence damage was scored visually after the test plants have emerged after an experimental time of 3 to 4 weeks by comparison with untreated controls.

The subject of test [2] is harmful plants such as Sinapis alba, Echinochloa crus-galli, Lolium multiflorum, Stellaria media, Cyperus iria, Amaranthus retroflexus, Setaria viridis, Avena …. Nature of the test: Post-emergence effect on weeds (greenhouse pot test). The format is in vivo. As to conditions: application rate of 2 kg or less of active ingredient per hectare; treated in the three-leaf stage; scored after approx. 3 to 4 weeks by comparison with untreated controls.

Consider `Cc1ccc2c(c1)C(Nc1nc(N)nc(C(F)C#N)n1)C(C)C2` (mixture of isomers) [Compound 7.243], for which, in test [1], the “pre-emergence control of harmful plants (plant or emergence damage scored visually)” value (from here on “pre-emergence control of harmful plants”) is given as “very good pre-emergence control”. In test [2], the “herbicidal post-emergence activity against harmful plants (scored visually)” value (“herbicidal post-emergence activity” for short) is listed as “very good herbicidal post-emergence activity”.
In the case of `CCC(F)c1nc(N)nc(NC2c3ccccc3CC2C)n1` (mixture of isomers) [Compound 9.36], the “pre-emergence control of harmful plants” value in test [1] is “very good pre-emergence control”. Moreover, the “herbicidal post-emergence activity” value in test [2] was “very good herbicidal post-emergence activity”.
Consider `CC(F)c1nc(N)nc(NC2CCc3ccccc32)n1` (mixture of isomers) [Compound 10.1], for which the “pre-emergence control of harmful plants” value in test [1] is reported as “very good pre-emergence control”. Also, the “herbicidal post-emergence activity” value in test [2] is reported as “very good herbicidal post-emergence activity”.
For `CCC(F)c1nc(N)nc(N[C@@H]2CCc3ccc(F)cc32)n1` (mixture of isomers) [Compound 10.38] the same measures were “very good pre-emergence control” and “very good herbicidal post-emergence activity”.
In the same order, the values of `CCCC(F)c1nc(N)nc(NC2CCOc3c(C)cc(C)cc32)n1` (mixture of isomers) [Compound 10.67] are “very good pre-emergence control” and “very good herbicidal post-emergence activity”.
In the same order, the values of `CCC(F)c1nc(N)nc(NC2CCCc3c(C)cc(C)cc32)n1` (mixture of isomers) [Compound 10.68] are “very good pre-emergence control” and “very good herbicidal post-emergence activity”.
On to `C[C@@H](F)c1nc(N)nc(N[C@@H]2CCc3ccccc32)n1` [Compound 1.1], for which the “pre-emergence control of harmful plants” value in test [1] was “very good pre-emergence control”. Moreover, the “herbicidal post-emergence activity” value in test [2] was “very good herbicidal post-emergence activity”.
In the same order, the values of `Cc1ccc2c(c1)[C@H](Nc1nc(N)nc([C@@H](C)F)n1)CC2` [Compound 1.2] are “very good pre-emergence control” and “very good herbicidal post-emergence activity”.
On to `C[C@@H](F)c1nc(N)nc(N[C@@H]2CCc3ccc(F)cc32)n1` [Compound 1.3], for which the “pre-emergence control of harmful plants” value in test [1] was “very good pre-emergence control”. In test [2], the “herbicidal post-emergence activity” value was “very good herbicidal post-emergence activity”.
In the case of `Cc1cc2c(cc1C)[C@H](Nc1nc(N)nc([C@@H](C)F)n1)CC2` [Compound 1.7], the “pre-emergence control of harmful plants” value in test [1] is listed as “very good pre-emergence control”. For the same molecule, the “herbicidal post-emergence activity” value in test [2] was “very good herbicidal post-emergence activity”.
For `C[C@@H](F)c1nc(N)nc(N[C@@H]2CCCc3ccccc32)n1` [Compound 1.11] the same measures were “very good pre-emergence control” and “very good herbicidal post-emergence activity”.
In the same order, the values of `Cc1ccc2c(c1)[C@H](Nc1nc(N)nc([C@@H](C)F)n1)CCC2` [Compound 1.12] are “very good pre-emergence control” and “very good herbicidal post-emergence activity”.
In the same order, the values of `Cc1cc(C)c2c(c1)[C@H](Nc1nc(N)nc([C@@H](C)F)n1)CCC2` [Compound 1.15] are “very good pre-emergence control” and “very good herbicidal post-emergence activity”.

Values taken from patent US8114991B2, “Amino-1,3,5-triazines N-substituted with chiral bicyclic radicals, process for their preparation, compositions thereof, and their use as herbicides and plant growth regulators” (Bayer Cropscience AG, priority 2003, dated 2012).
